# Data: patent US11813340B2, “PSMA targeted radiohalogenated urea-polyaminocarboxylates for cancer radiotherapy” (The Johns Hopkins University, priority 2018, dated 2023)
# Read-outs that look alike come from different tables or passages of the source.
# Test system: PSMA+PC3-PIP and PSMA-PC3-flu flank xenografts
# Procedure: Final compounds were purified by HPLC. […] Organs were harvested 1, 4, and 24 h post-injection (n=5 per time point).
# [1] = 1-hour, Blocker VK-02-90 0.5 nmole
# [2] = 1-hour, Blocker VK-02-90 1.0 nmole
# [3] = 1-hour, Blocker VK-02-90 5.0 nmole
# [4] = 1-hour, Blocker YC-I-27 0.5 nmole
# [5] = 1-hour, Blocker YC-I-27 1.0 nmole
# [6] = 1-hour, Blocker YC-I-27 5 nmole
# [7] = 4-hr, Blocker VK-02-90 0.5 nmole
# [8] = 4-hr, Blocker VK-02-90 1.0 nmole
# [9] = 4-hr, Blocker VK-02-90 5.0 nmole
compound,measurement,setting,value
O=C([O-])CN1CCN(CC(=O)[O-])CCN(CC(=O)NCCCCC(=O)N(CCCC[C@H](NC(=O)N[C@@H](CCC(=O)O)C(=O)O)C(=O)O)Cc2ccc([125I])cc2)CCN(CC(=O)[O-])CC1.[Lu+3] [[^125I]VK-02-90-Lu],"Biodistribution, Blood","1-hour, Blocker None",1.1 ± 0.1 % injected dose/g
same,"Biodistribution, Flu tumor","1-hour, Blocker None",1.0 ± 0.2 % injected dose/g
same,"Biodistribution, Kidneys","1-hour, Blocker None",129 ± 15 % injected dose/g
same,"Biodistribution, Lacrimal glands","1-hour, Blocker None",2.1 ± 0.9 % injected dose/g
same,"Biodistribution, PIP tumor","1-hour, Blocker None",26.0 ± 3.0 % injected dose/g
same,"Biodistribution, Salivary glands","1-hour, Blocker None",2.3 ± 0.5 % injected dose/g
same,"Biodistribution, Spleen","1-hour, Blocker None",4.3 ± 0.9 % injected dose/g
same,"Biodistribution, Stomach","1-hour, Blocker None",1.7 ± 0.3 % injected dose/g
same,"Biodistribution, Blood",[1],0.4 ± 0.1 % injected dose/g
same,"Biodistribution, Flu tumor",[1],0.6 ± 0.3 % injected dose/g
same,"Biodistribution, Kidneys",[1],9.9 ± 2.5 % injected dose/g
same,"Biodistribution, Lacrimal glands",[1],0.4 ± 0.1 % injected dose/g
same,"Biodistribution, PIP tumor",[1],36.7 ± 6.8 % injected dose/g
same,"Biodistribution, Salivary glands",[1],0.2 ± 0.03 % injected dose/g
same,"Biodistribution, Spleen",[1],1.1 ± 0.4 % injected dose/g
same,"Biodistribution, Stomach",[1],0.2 ± 0.1 % injected dose/g
same,"Biodistribution, Blood",[2],0.4 ± 0.1 % injected dose/g
same,"Biodistribution, Flu tumor",[2],0.5 ± 0.1 % injected dose/g
same,"Biodistribution, Kidneys",[2],6.5 ± 0.9 % injected dose/g
same,"Biodistribution, Lacrimal glands",[2],0.4 ± 0.1 % injected dose/g
same,"Biodistribution, PIP tumor",[2],35.1 ± 9.0 % injected dose/g
same,"Biodistribution, Salivary glands",[2],0.2 ± 0.06 % injected dose/g
same,"Biodistribution, Spleen",[2],1.1 ± 0.4 % injected dose/g
same,"Biodistribution, Stomach",[2],0.2 ± 0.04 % injected dose/g
same,"Biodistribution, Blood",[3],0.5 ± 0.1 % injected dose/g
same,"Biodistribution, Flu tumor",[3],0.9 ± 0.3 % injected dose/g
same,"Biodistribution, Kidneys",[3],4.2 ± 0.5 % injected dose/g
same,"Biodistribution, Lacrimal glands",[3],0.4 ± 0.03 % injected dose/g
same,"Biodistribution, PIP tumor",[3],23.5 ± 4.3 % injected dose/g
same,"Biodistribution, Salivary glands",[3],0.3 ± 0.1 % injected dose/g
same,"Biodistribution, Spleen",[3],0.7 ± 0.2 % injected dose/g
same,"Biodistribution, Stomach",[3],0.2 ± 0.06 % injected dose/g
same,"Biodistribution, Blood",[4],1.1 ± 0.1 % injected dose/g
same,"Biodistribution, Flu tumor",[4],1.0 ± 0.3 % injected dose/g
same,"Biodistribution, Kidneys",[4],4.2 ± 1.3 % injected dose/g
same,"Biodistribution, Lacrimal glands",[4],0.5 ± 0.1 % injected dose/g
same,"Biodistribution, PIP tumor",[4],41.8 ± 4.2 % injected dose/g
same,"Biodistribution, Salivary glands",[4],3.2 ± 0.7 % injected dose/g
same,"Biodistribution, Spleen",[4],0.8 ± 0.2 % injected dose/g
same,"Biodistribution, Stomach",[4],1.8 ± 0.2 % injected dose/g
same,"Biodistribution, Blood",[5],1.0 ± 0.1 % injected dose/g
same,"Biodistribution, Flu tumor",[5],0.8 ± 0.2 % injected dose/g
same,"Biodistribution, Kidneys",[5],2.4 ± 0.8 % injected dose/g
same,"Biodistribution, Lacrimal glands",[5],0.6 ± 0.05 % injected dose/g
same,"Biodistribution, PIP tumor",[5],29.1 ± 2.4 % injected dose/g
same,"Biodistribution, Salivary glands",[5],2.9 ± 0.4 % injected dose/g
same,"Biodistribution, Spleen",[5],0.6 ± 0.1 % injected dose/g
same,"Biodistribution, Stomach",[5],1.8 ± 0.3 % injected dose/g
same,"Biodistribution, Blood",[6],1.1 ± 0.2 % injected dose/g
same,"Biodistribution, Flu tumor",[6],0.8 ± 0.2 % injected dose/g
same,"Biodistribution, Kidneys",[6],2.3 ± 0.7 % injected dose/g
same,"Biodistribution, Lacrimal glands",[6],1.1 ± 0.6 % injected dose/g
same,"Biodistribution, PIP tumor",[6],20.1 ± 2.8 % injected dose/g
same,"Biodistribution, Salivary glands",[6],5.1 ± 1.7 % injected dose/g
same,"Biodistribution, Spleen",[6],0.7 ± 0.1 % injected dose/g
same,"Biodistribution, Stomach",[6],2.2 ± 0.7 % injected dose/g
same,"Biodistribution, Blood","4-hr, Blocker None",0.3 ± 0.2 % injected dose/g
same,"Biodistribution, Flu tumor","4-hr, Blocker None",0.25 ± 0.1 % injected dose/g
same,"Biodistribution, Kidneys","4-hr, Blocker None",9.5 ± 2.5 % injected dose/g
same,"Biodistribution, Lacrimal glands","4-hr, Blocker None",0.4 ± 0.2 % injected dose/g
same,"Biodistribution, PIP tumor","4-hr, Blocker None",27.4 ± 7.5 % injected dose/g
same,"Biodistribution, Salivary glands","4-hr, Blocker None",1.8 ± 0.2 % injected dose/g
same,"Biodistribution, Spleen","4-hr, Blocker None",0.6 ± 0.2 % injected dose/g
same,"Biodistribution, Stomach","4-hr, Blocker None",0.8 ± 0.5 % injected dose/g
same,"Biodistribution, Blood",[7],0.02 ± 0.01 % injected dose/g
same,"Biodistribution, Flu tumor",[7],0.1 ± 0.02 % injected dose/g
same,"Biodistribution, Kidneys",[7],2.1 ± 0.7 % injected dose/g
same,"Biodistribution, Lacrimal glands",[7],0.1 ± 0.03 % injected dose/g
same,"Biodistribution, PIP tumor",[7],24.8 ± 2.0 % injected dose/g
same,"Biodistribution, Salivary glands",[7],0.08 ± 0.04 % injected dose/g
same,"Biodistribution, Spleen",[7],0.2 ± 0.1 % injected dose/g
same,"Biodistribution, Stomach",[7],0.06 ± 0.01 % injected dose/g
same,"Biodistribution, Blood",[8],0.2 ± 0.01 % injected dose/g
same,"Biodistribution, Flu tumor",[8],0.1 ± 0.03 % injected dose/g
same,"Biodistribution, Kidneys",[8],1.4 ± 0.4 % injected dose/g
same,"Biodistribution, Lacrimal glands",[8],0.1 ± 0.05 % injected dose/g
same,"Biodistribution, PIP tumor",[8],27.1 ± 3.6 % injected dose/g
same,"Biodistribution, Salivary glands",[8],0.1 ± 0.02 % injected dose/g
same,"Biodistribution, Spleen",[8],0.2 ± 0.1 % injected dose/g
same,"Biodistribution, Stomach",[8],0.1 ± 0.03 % injected dose/g
same,"Biodistribution, Blood",[9],0 % injected dose/g
same,"Biodistribution, Flu tumor",[9],0.1 ± 0.01 % injected dose/g
same,"Biodistribution, Kidneys",[9],0.9 ± 0.3 % injected dose/g
same,"Biodistribution, Lacrimal glands",[9],0.1 ± 0.1 % injected dose/g
same,"Biodistribution, PIP tumor",[9],18.8 ± 2.0 % injected dose/g
same,"Biodistribution, Salivary glands",[9],0.05 ± 0.02 % injected dose/g
